{"source": "patent US20130295692A1", "about": "“MEANS AND METHODS FOR PREDICTING DIABETES” (METANOMICS HEALTH GMBH, priority 2010, published 2013)", "tested_on": "healthy rat plasma glyoxylate concentrations", "test": "Rats treated with anti-diabetic drug metformin: 28-day oral gavage study, plasma metabolite profiling of glyoxylate", "format": "in vivo", "details": "for Ratio treatment/control of plasma glyoxylate: fasted plasma", "method": "Two groups of each 5 male and female rats was dosed once daily with the indicated compounds with a different dose per group (see below) over 28 days.\nEach dose group in the studies consisted of five rats per sex. Additional groups of each 15 male and 15 female animals served as controls. Before starting the treatment period, animals, which were 62-64 days old when supplied, were acclimatized to the housing and environmental conditions for 7 days. All animals of the animal population were kept under the same constant temperature (20-24±3° C.) and the same constant humidity (30-70%). The animals of the animal population were fed ad libitum. The food to be used was essentially free of chemical or microbial contaminants. Drinking water was also offered ad libitum. Accordingly, the water was free of chemical and microbial contaminants as laid down in the European Drinking Water Directive 98/83/EG. The illumination period was 12 hours light followed by 12 hours darkness (12 hours light, from 6:00 to 18:00, and 12 hours darkness, from 18:00 to 6:00). The studies were performed in an AAALAC-approved laboratory in accordance with the German Animal Welfare Act and the European Council Directive 86/609/EE. The test system was arranged according to the OECD 407 guideline for the testing of chemicals for repeated dose 28-day oral toxicity study in rodents. The test substance was dosed and administered as follows:\nMetformin hydrochloride was administered by gavage (high dose group at 1 g/kg body weight, low dose group at 0.2 g/kg body weight), in drinking water containing 0.5% Carboxymethyl cellulose (Tylose CB30000) (administration volume: 10 ml/kg body weight).\nIn the morning of day 7, 14, and 28, blood was taken from the retroorbital venous plexus from fasted anaesthetized animals. From each animal, 1 ml of blood was collected with EDTA as anticoagulant. The samples were centrifuged for generation of plasma. All plasma samples were covered with a N2 atmosphere and then stored at −80° C. until analysis.\nFor mass spectrometry-based metabolite profiling analyses plasma samples were extracted and a polar and a non-polar (lipid) fraction was obtained. For GC-MS analysis, the non-polar fraction was treated with methanol under acidic conditions to yield the fatty acid methyl esters. Both fractions were further derivatised with O-methyl-hydroxyamine hydrochloride and pyridine to convert Oxo-groups to O-methyloximes and subsequently with a silylating agent before analysis. In LC-MS analysis, both fractions were reconstituted in appropriate solvent mixtures. HPLC was performed by gradient elution on reversed phase separation columns. Mass spectrometric detection which allows target and high sensitivity MRM (Multiple Reaction Monitoring) profiling in parallel to a full screen analysis was applied as described in WO2003073464.\nFollowing comprehensive analytical validation steps, the data for each analyte were normalized against data from pool samples. These samples were run in parallel through the whole process to account for process variability. The significance of treatment group values specific for sex, treatment duration and metabolite was determined by comparing means of the treated groups to the means of the respective untreated control groups using WELCH-test and quantified with treatment ratios versus control and p-values.", "note": "Structures can show the parent of a compound that is named as a salt."}
{"smiles": "CN(C)C(=N)NC(=N)N", "note": "[Metformin hydrochloride, N,N-dimethylimidodicarbonimidic diamide]", "values": [{"measurement": "Ratio treatment/control of plasma glyoxylate", "setting": "High Dose 1 g/kg body weight by gavage once daily, female rats, day 7 (f7)", "result": 0.82}, {"measurement": "Ratio treatment/control of plasma glyoxylate", "setting": "High Dose 1 g/kg body weight by gavage once daily, female rats, day 14 (f14)", "result": 0.58}, {"measurement": "Ratio treatment/control of plasma glyoxylate", "setting": "High Dose 1 g/kg body weight by gavage once daily, female rats, day 28 (f28)", "result": 0.52}, {"measurement": "Ratio treatment/control of plasma glyoxylate", "setting": "High Dose 1 g/kg body weight by gavage once daily, male rats, day 7 (m7)", "result": 0.22}, {"measurement": "Ratio treatment/control of plasma glyoxylate", "setting": "High Dose 1 g/kg body weight by gavage once daily, male rats, day 14 (m14)", "result": 0.29}, {"measurement": "Ratio treatment/control of plasma glyoxylate", "setting": "High Dose 1 g/kg body weight by gavage once daily, male rats, day 28 (m28)", "result": 0.58}, {"measurement": "Ratio treatment/control of plasma glyoxylate", "setting": "Low Dose 0.2 g/kg body weight by gavage once daily, female rats, day 7 (f7)", "result": 1.01}, {"measurement": "Ratio treatment/control of plasma glyoxylate", "setting": "Low Dose 0.2 g/kg body weight by gavage once daily, female rats, day 14 (f14)", "result": 0.72}, {"measurement": "Ratio treatment/control of plasma glyoxylate", "setting": "Low Dose 0.2 g/kg body weight by gavage once daily, female rats, day 28 (f28)", "result": 0.64}, {"measurement": "Ratio treatment/control of plasma glyoxylate", "setting": "Low Dose 0.2 g/kg body weight by gavage once daily, male rats, day 7 (m7)", "result": 0.59}, {"measurement": "Ratio treatment/control of plasma glyoxylate", "setting": "Low Dose 0.2 g/kg body weight by gavage once daily, male rats, day 14 (m14)", "result": 0.65}, {"measurement": "Ratio treatment/control of plasma glyoxylate", "setting": "Low Dose 0.2 g/kg body weight by gavage once daily, male rats, day 28 (m28)", "result": 0.44}, {"measurement": "Effect on glyoxylate concentrations in rat model system (summary in words)", "setting": "rat model system, summary of Table 8", "result": "capable of reducing glyoxylate concentrations"}]}
